Usually Ki stands for the equilibrium dissociation constant of an inhibitor or competing ligand from its target. High values mean lower affinity, low ones higher affinity.

SMILES strings stand for the structures. Counter-ions that a name gives are not always drawn.

These results are taken from PMC8409088 (ChemistryOpen, 2020).

Chain of glutaminyl cyclase (QC, QPCT) (Q16769 33-361): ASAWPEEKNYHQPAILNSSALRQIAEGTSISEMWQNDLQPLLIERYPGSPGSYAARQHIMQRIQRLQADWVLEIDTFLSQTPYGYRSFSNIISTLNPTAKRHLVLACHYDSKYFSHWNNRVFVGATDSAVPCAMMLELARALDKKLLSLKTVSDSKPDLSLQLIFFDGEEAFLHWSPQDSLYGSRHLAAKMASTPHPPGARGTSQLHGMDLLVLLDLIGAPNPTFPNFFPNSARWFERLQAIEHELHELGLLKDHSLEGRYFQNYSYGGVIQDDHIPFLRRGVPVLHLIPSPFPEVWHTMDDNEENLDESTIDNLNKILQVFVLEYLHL

This assay has as its target glutaminyl cyclase (QC, QPCT) (Homo sapiens, UniProt Q16769). Nature of the assay: glutamic dehydrogenase-coupled assay, NADH absorbance at […] nm. In kind it is biochemical.
Turning to `Cc1cnc(C(=O)O)c[n+]1[O-]` [Acipimox], the Ki was 6.23 ± 0.85 mM.
Then `O=C(/C=C/c1cccc(S(=O)(=O)Nc2ccccc2)c1)NO` [Belinostat (PXD101)], with 2.98 ± 0.67 mM; and `Cc1cccc(Cc2c[nH]cn2)c1C` [Detomidine HCl], with 2.58 ± 0.28 mM.
Then `CC[C@@H]1C(=O)OC[C@@H]1Cc1cncn1C` [Pilocarpine HCl], with 13.2 ± 7.27 mM.
